According to US20210063391A1, “METHODS AND SYSTEMS FOR BIOCELLULAR MARKER DETECTION AND DIAGNOSIS USING A MICROFLUIDIC PROFILING DEVICE” (The Regents of the University of Michigan, priority 2018, published 2021):

Tests used:
Stat1/3 = assay: Inflammation signature quantification of treated PBMC lysates by microfluidic immunoblotting (p-Stat1, p-Stat3); format: cell-based
Text: An exemplary procedure for immunoblotting with a device of the present disclosure is as follows. A protein-containing sample is loaded into the wells of a gel (e.g., polyacrylamide gel) and proteins present in the sample are separated by gel electrophoresis (e.g., native gel electrophoresis, SDS-PAGE, etc.). A membrane (e.g., PVDF membrane) is placed atop the gel to allow transfer of the proteins onto the membrane. The membrane is then placed on a glass slide. A microfluidic device is placed on top of membrane, and the microfluidic channels are aligned with the protein lanes. Blocking buffer (e.g., Tween-20 and BSA) is optionally injected in each of the channels. In embodiments with a blocking step, the inlets/outlets of the channels are covered (e.g., with tape) to minimize evaporation during incubation. Antibodies are injected into the appropriate channels (e.g., different antibodies in each microchannel of a set). The inlets/outlets are covered (e.g., with tape) to minimize evaporation during incubation. Following incubation (e.g., 1 hours), the microfluidic device is removed, and the membrane is transferred to a solution of an appropriate secondary antibody (e.g., the membrane is left in this solution for 1 hour, or until the membrane is completely wet). The membrane is removed from the secondary antibody solution and washed with fresh blocking buffer (e.g., 3 minutes, 5 times each). The membrane is transferred to a developing solution (e.g., 30 minutes), and the membrane is removed and rinsed with DI water. The membrane is then allowed to dry. […]
(§1) FIGS. 2A-2B include representative graphs of inflammation signature quantification for PBMC lysates treated with LPS, Heparinase III and LPS+Heparinase III for 2 hours, according to one embodiment of the present disclosure. […]
(§2) FIGS. 3A-3B include representative graphs of inflammation signature quantification for PBMC lysates treated with Hyaluronidase (Hyal), Neuraminidase (Neu) and Spironolactone for 2 hours, according to one embodiment of the present disclosure. […]

p65 = assay: Inflammation signature quantification of treated PBMC lysates by microfluidic immunoblotting (p-p65); format: cell-based; conditions: PBMCs treated 2 hours
Text: An exemplary procedure for immunoblotting with a device of the present disclosure is as follows. A protein-containing sample is loaded into the wells of a gel (e.g., polyacrylamide gel) and proteins present in the sample are separated by gel electrophoresis (e.g., native gel electrophoresis, SDS-PAGE, etc.). A membrane (e.g., PVDF membrane) is placed atop the gel to allow transfer of the proteins onto the membrane. The membrane is then placed on a glass slide. A microfluidic device is placed on top of membrane, and the microfluidic channels are aligned with the protein lanes. Blocking buffer (e.g., Tween-20 and BSA) is optionally injected in each of the channels. In embodiments with a blocking step, the inlets/outlets of the channels are covered (e.g., with tape) to minimize evaporation during incubation. Antibodies are injected into the appropriate channels (e.g., different antibodies in each microchannel of a set). […]
as §1, §2

Substance | Stat1/3 activation (Stat1/3; PBMCs treated 2 hours, 0.25 U/mL Neuraminidase vs 2 U/mL Hyaluronidase and 100 μM Spironolactone) | p65 activation (p65; 0.25 U/mL Neuraminidase vs 2 U/mL Hyaluronidase and 100 μM Spironolactone) | activation of Stat1/3 (Stat1/3; PBMCs treated 2 hours, 1.5 U/mL Heparinase III, compared with 1 μg/ml LPS) | effect on LPS Stat1/3 response (Stat1/3; PBMCs, 2 hours, Heparinase III 1.5 U/mL together with LPS 1 μg/ml) | p65 activation (p65; 1.5 U/mL Heparinase III and/or 1 μg/ml LPS)
Neuraminidase | increases Stat1/3 and p65 activation as compare to Hyal and Spiro | increases Stat1/3 and p65 activation as compare to Hyal and Spiro | – | – | –
Heparinase III | – | – | leads to activation of Stat1/3, although not as much as LPS | attenuates LPS Stat1/3 response when done together | increases p65 activation though similar to LPS response
